Measured values taken from patent US5583222A, “Azepanes and their ring homologues having protein kinase inhibiting activity” (Hoffmann-La Roche Inc., priority 1994, dated 1996).
Where a name gives a salt, the structure may show the parent alone.

Experiments:
[1] = molecular target: cAMP-dependent protein kinase (PKA); test: Inhibition of cAMP-dependent protein kinase (PKA); type: biochemical; details: partially purified PKA from swine brain; histone H1 substrate; 10 μM ATP; 2 μM cyclic AMP; pH 7.4; 32° C., 2 minutes; read-out: Test Procedure B: IC50, inhibition of PKA
Experimental: B: Inhibition of CAMP-dependent protein kinase (PKA): PKA activity is determined by measuring the transfer of ^32 P-labelled phosphate from ^32 P-γ-ATP (10 μM) tO histone H1 (333 μg/ml) as the substrate. Partially purified PKA from swine brain is used as the enzyme source [DEAE chromatography according to the method of U. Kikkawa et al. (Methods Enzymol. 99, 288, 1983)]. Activation of the PKA is effected by cyclic AMP (2 μM) in Tris-HCl buffer (20 mM, pH 7.4). The test substances are used in dimethyl sulphoxide (DMSO)/buffer in the concentration range 0.001-100 μM. The test is started by the addition of enzyme; after incubation at 32° C. for 2 minutes the reaction is stopped by the addition of 20% trichloroacetic acid (with 1% SDS and 1% sodium pyrophosphate). The precipitated radioactive histone protein is separated from excess ATP by filtration over nitrocellulose membranes and the radioactivity on the filter is measured in a scintillation counter. The inhibitory activity of the test substance is given as the micromolar concentration which is required to reduce the PKA activity by 50% (IC50 [μM]).

protein kinase C (PKC) [2] = test: Inhibition of protein kinase C (PKC) (in cells), MARCKS phosphorylation in 3T3 fibroblasts; type: cell-based; details: Fibroblast, TPA 100 nM, phosphorylation of 80 kD MARCKS protein, 37° C., read-out: Test Procedure C: IC50, inhibition of PKC in cells
Experimental: C: Inhibition of protein kinase C (PKC) (in cells): The intracellular protein kinase C (PKC) activity is determined in 3T3 fibroblasts by measuring the phosphorylation of a PKC-specific substrate, namely 80 kD MARCKS protein (myristoylated alanine-rich C-kinase substrate). The endogenous ATP is firstly labelled by incubating the cells at 37° C. with 80-200 μCi/ml of inorganic ^32 P-labelled phosphate. Then, the activation of the PKC is effected by phorbol ester (tetradecanoyl-phorbol 13-acetate (TPA); 100 nM). The test substances are used 15 minutes prior to TPA in dimethyl sulphoxide (DMSO)/buffer in the concentration range 0.1-100 μM. After incubation at 37° C. for 15 minutes the reaction is stopped by removing the medium and the cells are lysed by the addition of 1% Triton X-100 in phosphate buffer. The cell extract is subjected to a heat treatment (20 minutes at 90° C.) and subsequently centrifuged, whereby the MARCKS protein remains dissolved in the supernatant. This is then separated by discontinuous, one-dimensional SDS gel electrophoresis and the radioactivity in the 80 kD protein band is measured by a phosphoimager.

Primary keratinocytes = test: Inhibition of keratinocyte proliferation b) Primary keratinocytes; type: cell-based; details: primary keratinocytes from human foreskin, 48 hours, [3H]thymidine incorporation, read-out: Test Procedure E b: IC50, inhibition of keratinocyte proliferation
Experimental: (§1) E Inhibition of keratinocyte proliferation: HaCaT-cell culture is effected in medium DMEM/F12 (mixture ratio 3/1) which contains serum (FCS, 5%), epidermal growth factor (EGF), hydrocortisone, cholera toxin, insulin, L-glutamine and penicillin/streptomycin. 5000 cells in 0.2 ml of medium are used per well in microtitre plates. The test substances are diluted in dimethyl sulphoxide/(DMSO)/medium and used in the concentration range 0.01-10 μM at the start of the culture. The cells are then incubated at 37° C. for 48 hours; radioactive [^3 H]thymidine is added during the last 6 hours. After disrupting the cells with trypsin incorporated activity is measured in a scintillation counter. The inhibitory activity of the test substance is given as the micromolar concentration which is required to reduce the thymidine incorporation by 50% (IC50 [μM]). b) Primary keratinocytes: Keratinocytes, isolated from human foreskin, are used in the primary culture up to passage 7. The culture and test conditions are identical with those of the HaCaT-cells with the exception of the use of 10000 cells per well.

HaCaT-cells = test: Inhibition of keratinocyte proliferation a) HaCaT-cells; type: cell-based; details: Homo sapiens, 48 hours, [3H]thymidine incorporation, read-out: Test Procedure E a: IC50, inhibition of keratinocyte proliferation
Experimental: as §1, with “proliferation: a) HaCaT-cells (immortalised human cells line):” for “proliferation:”, “[μM]).” for “[μM]). b) Primary keratinocytes: Keratinocytes, isolated from human foreskin, are used in the primary culture up to passage 7. The culture and test conditions are identical with those of the HaCaT-cells with the exception of the use of 10000 cells per well.”

protein kinase C (PKC) [3] = test: Inhibition of protein kinase C (PKC) (isolated enzyme); type: biochemical; details: partially purified PKC from swine brain; histone H1 substrate; 10 μM ATP; pH 7.4; 32° C., 2 minutes; read-out: Test Procedure A: IC50, inhibition of PKC (isolated enzyme)
Experimental: A: Inhibition of protein kinase C (PKC) (isolated enzyme): Protein kinase C (PKC) activity is determined by measuring the transfer of ^32 P-labelled phosphate from ^32 P-γ-ATP (10 μM)to histone H1 (200 μg/ml) as the substrate. Partially purified PKC from swine brain is used as the enzyme source [DEAE chromatography according to the method of U. Kikkawa et al. (Methods Enzymol. 99, 288, 1983)]. Activation of the PKC is effected by phospholipid vesicle prepared by ultrasound treatment of a mixture of 0.05 ml of phosphatidylserine (10 mg/ml) and 0.005 ml of diolein (10 mg/ml) in 5 ml of Tris-HCl buffer (20 mM, pH 7.4). The test substances are used in dimethyl sulphoxide (DMSO)/buffer in the concentration range 0.001-100 μM. The test is started by the addition of enzyme; after incubation at 32° C. for 2 minutes the reaction is stopped by the addition of 20% trichloroacetic acid (with 1% SDS and 1% sodium pyrophosphate). The precipitated radioactive histone protein is separated from excess ATP by filtration over nitrocellulose membranes and the radioactivity on the filter is measured in a scintillation counter. The inhibitory activity of the test substance is given as the micromolar concentration which is required to reduce the PKC activity by 50% (IC50 [μM]).

T-lymphocyte = test: Inhibition of T-lymphocyte proliferation; type: cell-based; details: human mononuclear cells, PHA 1 μg/ml, [3H]thymidine, 3rd and 4th day, read-out: Test Procedure D: IC50, inhibition of T-lymphocyte proliferation
Experimental: D: Inhibition of T-lymphocyte proliferation: Human mononuclear cells are isolated from venous blood of a healthy donor and a suspension of 5×10^5 cells/ml in RPMI 1640 medium, which contains 10% FCS, is prepared. The cells are stimulated with 1 μg/ml of T-cell-specific mitogen phytohaemagglutinin (PHA). 200 μl aliquots of cell suspension are treated in microtitre plates with the test substances in serial dilutions in the concentration range 0.03-10 μM. The cell proliferation is measured on the 3rd and 4th day by incubation with 1 μCi of [^3 H]thymidine during the last 6 hours of the respective day. The radioactivity taken up is measured with a liquid scintillation counter.

Row | Compound | IC50 [1] [nM] | IC50 (protein kinase C (PKC) [2]) [nM] | IC50 (Primary keratinocytes) [nM] | IC50 (HaCaT-cells) [nM] | IC50 (protein kinase C (PKC) [3]) [nM] | IC50 (T-lymphocyte) [nM]
1 | COc1cc(O)c(C(=O)c2ccc(C(=O)O[C@@H]3CCCNC[C@H]3NC(=O)c3ccc(O)cc3)cc2)c(F)c1 [Example 57, 4-(2-Fluoro-6-hydroxy-4-methoxy-benzoyl)-benzoic acid (3R,4R)-3-(4-hydroxy-benzoylamino)-azepan-4-yl ester hydrochloride (1:1)] | 5 | 2000 | 600 | 300 to 600 | 867 | –
2 | O=C(N[C@@H]1CNCCC[C@H]1OC(=O)c1ccc(C(=O)c2cc3ccccc3cc2O)cc1)c1ccc(O)cc1 [Example 60, 4-(3-Hydroxy-naphthalen-2-ylcarbonyl)-benzoic acid (3R,4R)-3-(4-hydroxy-benzoylamino)-azepan-4-yl ester hydrochloride (1:1)] | 9 | 2700 | 300 to 6000 | 300 to 500 | 1200 | 2000 to 5000
3 | Cc1cc(C(=O)N[C@@H]2CNCCC[C@H]2OC(=O)c2ccc(C(=O)c3c(O)ccc(F)c3F)cc2)cc(C)c1O [Example 25, 4-(2,3-Difluoro-6-hydroxy-benzoyl)-benzoic acid (3R,4R)3-(4-hydroxy-3,5-dimethyl-benzoylamino)-azepan-4-yl ester hydrochloride (1:1)] | 14 | 800 | – | – | 40 | 1000
4 | COc1ccc(O)c(C(=O)c2ccc(C(=O)O[C@@H]3CCCNC[C@H]3NC(=O)c3cc(C)c(O)c(C)c3)cc2)c1F [Example 20, 4-(2-Fluoro-6-hydroxy-3-methoxy-benzoyl)-benzoic acid (3R,4R)-3-(4-hydroxy-3,5-dimethyl-benzoylamino)-azepan-4-yl ester hydrochloride (1:1)] | – | 340 | – | 3000 to 10000 | – | 100 to 6000
5 | Cc1cc(C(=O)N[C@@H]2CNCCC[C@H]2OC(=O)c2ccc(C(=O)c3c(O)ccc4c3OCCO4)cc2)cc(C)c1O [Example 41] | 13 | > 1000 | – | – | 40 | 300
